Assay results taken from patent US20070015737A1, “Compounds for inhibiting diseases and preparing cells for transplantation” (Neurochem (International) Limited, priority 1999, published 2007).

Legend:
Format in all cases: biochemical
IAPP [1] = target: T1, IAPP (Homo sapiens, UniProt P10997); experiment: Circular dichroism analysis of β-sheet conformation (Example 2); parameters: add 10 μL of 10 mg/mL IAPP stock solution (final 100 μg peptide); conditions: changes in ellipticity at 218 nm (β-sheet conformation); peptide:compound 1:10
T1 sequence (P10997 34-70 limits assumed): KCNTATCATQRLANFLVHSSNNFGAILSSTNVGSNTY
Method: Circular dichroism analysis was conducted to confirm the activity of certain therapeutic compounds in preventing or inhibiting IAPP-associated fibril formation in accordance with the present disclosure by determining the presence or absence of β-sheet conformation.
The assay, a co-incubation procedure, examines the ability of a compound or substance to inhibit the assembly of amyloid fibrils, e.g., to test for the presence of the amyloidotic b-sheet conformation in the presence of soluble IAPP. Samples are run in the presence and absence (i.e., water alone) of buffering agent, which is done to determine if competitive effects are seen with the ionic buffer (usually phosphate).
Add components used at a molar ratio of 1:10 [peptide:compound]; add 10 μL of 10 mg/mL IAPP stock solution (final 100 μg peptide) to the aqueous solution containing compound to a final volume of 400 μl. The pH of the final assay solution is measured to ensure there is no fluctuation and the spectrum is accumulated using the parameters as shown above.
Add desired amount of compound to achieve a 1:10 molar ratio in 10 mM phosphate buffer, pH 7. Add 10 μL of 10 mg/mL IAPP stock solution (final peptide 100 μg) to the phosphate buffered solution containing the compound and bring to a final volume of 400 μL. The pH of the final assay solution is measured to ensure there is no fluctuation and the spectrum is accumulated using the parameters as shown above.
In both assays, a control sample is run with each test group. This control contains peptide only in water or buffer at a similar final volume of 400 μl. Spectra for the control are collected initially (first run) and at the end of the test (final run) to ensure that the peptide has not undergone extensive aggregation during the course of the assay. Spectra for the controls are used to compare with the measurements obtained with the treated samples.
Make fresh 1 mg/mL stock solution of IAPP in 10 mM phosphate buffer, pH 7. Add desired amount of compound to achieve a 1:10 molar ratio in 10 mM phosphate buffer, pH 7. Incubate for 3 days at room temperature. Make up to final volume of 400 μL with 10 mM phosphate buffer, pH 7. The pH of the final assay solution is measured to ensure there is no fluctuation and the spectrum is accumulated using the parameters as shown above. A similar control is run for comparative purposes.
Plots of the spectra (control and treated) are individually assembled and the changes in ellipticity at 218 nm are examined. This minimum is directly correlated with the amount of peptide in β-sheet conformation present in the sample. Changes in either a positive or negative direction are noted and a relative value (“active” or “not active”) assigned to the compound as a measure of activity.

Human IAPP (hIAPP) = target: T2, Human IAPP (hIAPP) (Homo sapiens, UniProt P10997); experiment: ELISA assay for quantitative determination of fibril formation (Example 4)
T2 construct: Human IAPP (hIAPP) was synthesised by solid state synthesis (Advanced Biotechnologies, UK); purchased Advanced Biotechnologies, UK; host or cells: chemical solid-phase synthesis
T2 sequence (P10997 34-70 limits assumed): T1 sequence (P10997 34-70 limits assumed)
Method: ELISA Assay for Quantitative Determination of Fibril Formation
Human IAPP (hIAPP) was synthesised by solid state synthesis (Advanced Biotechnologies, UK). Human IAPP forms fibrils immediately in aqueous media. Aliquots of IAPP in water (800 μg/ml) were stored frozen at −20° C. until use. These samples contain small numbers of fibrils visible with electron microscopy (em).
Two sets of samples containing IAPP (20 μM) with or without inhibitors (at a molar ratio of 10:1 with IAPP, (20 μM)) were prepared on day 1 in Tris buffer. One set was centrifuged, the supernatant removed and frozen immediately at −20° C. (Time zero time point). The other set was incubated overnight at room temp with shaking (time 24 h time point). On day 2 these samples were spun and supernatant removed to determine the proportion of non-fibrillar IAPP.
To assay IAPP in the supernatant both sets of samples were serially diluted in bicarbonate coating buffer, added to ELISA wells and incubated overnight. Plates were washed in phosphate buffer containing Tween (PBS/Tw)×3. Diluted antiserum raised against human IAPP was incubated on the plate for 90 minutes at 37° C. Following washing in PBS/Tw, alkaline phosphatase conjugated anti-rabbit antisera was incubated for 90 mins. Following washing in PBS/Tw, alkaline phosphate substrate was added and colour allowed to develop for 30 mins. Optical density was read at 405 nm.
Data from all samples was calculated to determine changes of IAPP concentration in the supernatant induced by the candidate substance immediately (i.e. at time zero) or after 24 h incubation. Data in FIG. 1 is expressed as the proportion of non-fibrillar IAPP in the supernatant of test samples compared to control at both time points.

IAPP fibrils = target: T3, IAPP fibrils (Homo sapiens, UniProt P10997); experiment: Morphological characteristics of IAPP fibrils by transmission electron microscopy (Example 10); conditions: incubated 48 h, compared with IAPP alone
T3 sequence (P10997 34-70 limits assumed): T1 sequence (P10997 34-70 limits assumed)
Method: Morphological Characteristics of IAPP Fibrils Formed in Mixtures with Candidate Compounds.
IAPP prepared as in Example 3 was incubated with candidate compounds for 48 h Samples were then examined by transmission electron microscopy for the presence of fibrils. […] Long and short unbranching fibrils were present.

IAPP [2] = target: T1, IAPP; experiment: Rate of fibril formation by Thioflavine T spectroscopy (Example 5); conditions: thioflavine T assay
Method: Determination of the Rate of Fibril Formation by Thioflavine T Spectroscopy
This can be used as a sensitive assay for fibril formation under different conditions. This assay has been used in experiments to determine the effects of some candidate compounds on fibril formation.
Human IAPP was dissolved in 40% Trifuoroethanol and freeze dried into convenient sized aliquots. IAPP (1 mg/ml) was prepared immediately before the measurement by dissolving in 40% HFIP in water to maintain the peptide in alpha confirmation and soluble. A stock solution of Thioflavine T (2.5 mM) was prepared 7.9 mg in 10 ml Tris pH 7.0 and filtered (0.22 micron). Solutions were kept in dark until use. Fluorescence was examined at 440 nm excitation (slit 5 nm), and Emission at 482 nm (Slit 10 nm) with stirring. Twenty five microlitres of Th-T stock (final conc 62.5 μM) was added to peptide sample (8 μg/ml) and made up to 1 ml in the cuvette. The sample was stirred for 5 min before taking a reading. Measurements were made at an initial time points (5 mins from sample preparation) and at intervals over the next 4-6 h after overnight incubation at room temp with and without candidate compound (vi) and a compound known to accelerate fibril formation, polyvinylsulphonate.

IAPP [3] = target: T1, IAPP; experiment: Rate of amyloid fibril formation by Thioflavine T spectroscopy (Example 1); conditions: Thioflavine T fluorescence
Method: Determination of the Rate of Amyloid Fibril Formation by Thioflavine T Spectroscopy
Detection of ThT fluorescence can be used as a sensitive assay for amyloid fibril formation under different conditions. This assay has been used in experiments to determine the effects of compounds of the invention on amyloid fibril formation.
Human IAPP was dissolved in 40% trifluoroethanol and freeze-dried into conveniently-sized aliquots. IAPP was prepared immediately before the measurements by dissolving in 40% 1,1,1,3,3,3-hexafluoro-2-propanol (HFIP) in water to maintain the peptide in alpha helical conformation and soluble. A stock solution of ThT (2.5 mM) was prepared, 7.9 mg in 10 mL Tris-HCl pH 7.0 and filtered (0.22 μm). Solutions were kept in the dark until use. Fluorescence was examined at 440 nm excitation (slit 5 nm), and emission at 482 nm (slit 10 nm) with stirring. […] of ThT stock (final concentration 62.5 μM) was added to peptide sample and made up to 1 mL in the cuvette. The sample was stirred for 5 min. before taking a reading. Measurements were made at an initial time point (5 min. from sample preparation), at intervals over the next 4-6 h and after overnight incubation at room temperature.

O=C(O)C(F)(F)C(F)(F)C(F)(F)C(=O)O [vi, Hexafluoroglutaric acid]
Activity (IAPP [1]): Active
proportion of non-fibrillar IAPP in the supernatant (Human IAPP (hIAPP); IAPP 20 μM, inhibitor:IAPP molar ratio 10:1, compared to control): increase the proportion of non-fibrillar IAPP in the supernatant
time point at which the increase of non-fibrillar IAPP was greater (Human IAPP (hIAPP); time zero versus time 24 h): greater at time zero
presence and morphology of fibrils (IAPP fibrils): contained fewer fibrils which were apparently short and long and not aggregated
time for which the reduced fluorescence level was stable (IAPP [2]): up to 15 hrs
fluorescence units (IAPP [2]; compared with IAPP alone): reduced fluorescence below the level recorded for IAPP alone
IAPP-associated fibril assembly (IAPP [3]): inhibit or prevent IAPP-associated fibril assembly
